Here are results for one compound from publication PMC9455983 (International Journal of Molecular Sciences, 2022).

One may read the Ki as a dissociation constant, usually derived from enzyme kinetics or from competition with a known ligand.

Data set [1] has as its system C57BL/6J mice. Nature of the data set: Ambulation (locomotor activity) in CLAMS/Oxymax system. The format is in vivo, mouse. The settings on record: i.c.v. The procedure:
(§1) Respiration rates (in breaths per minute) and animal locomotive activity (as ambulations) were assessed using the Oxymax/CLAMS system (Columbus Instruments, Columbus, OH), as described previously. Mice were habituated to their individual sealed housing chambers for 60 min before testing. Mice were administered 1968-22 (0.3–100 nmol, i.c.v.), morphine (100 nmol, i.c.v.), or vehicle, as indicated, and five min later confined to the CLAMS testing chambers. Pressure monitoring within the sealed chambers measured frequency of respiration. Infrared beams located in the floor measured locomotion as number of beam breaks. Respiration and locomotive data were averaged over 20 min periods for 120 min post-injection of the test compound. Data are presented as % vehicle response ± SEM, ambulation or breaths per minute.

For data set [2], the target named is T1, kappa-opioid receptor (KOR) (Cavia porcellus, UniProt P41144).
T1 construct: Guinea pig cortices and cerebella were homogenized using 50 mM Tris, pH 7.4; from tissue; host or cells: guinea pig cortex and cerebellum membranes
Nature of the data set: KOR radioligand competition binding assay ([3H]U69,593). More on the design: species or system guinea pig. The settings on record: Kappa screening results. The gist of the method: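 Guinea pig cortex and cerebellum homogenates in 50 mM Tris pH 7.4 with 10 mM MgCl2, 2 nM [3H]U69,593, 2 h at 25 °C. Unlabeled U50,488 gave the standard curve and nonspecific binding. Filtration on BSA-soaked GF/B filters, scintillation counting; two replicates, repeated twice, mean ± SD.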
(In general: In a radioligand displacement assay an active substance lowers the binding of a labelled ligand.)

The test system of data set [3] is C57BL/6J mice. Put plainly: 55 °C warm-water tail-withdrawal assay (antinociception). The format is in vivo, mouse. The procedure:
For intracerebroventricular (i.c.v.) administration, the 1968-series compounds were dissolved in dimethyl sulfoxide (DMSO), followed by the addition of sterile saline (0.9%) so that the final vehicle was 50% DMSO and 50% saline, and the i.c.v. injections were performed as described previously. For per os (p.o.) administration, 1968-4 and 1968-22 were administered in 10% Ethanol/10%Tween-80/80% 0.9% saline. All solutions for animal administration were prepared fresh daily.
Antinociception was calculated according to the following formula: % antinociception = 100 × (test latency − control latency)/(15 − control latency). Tail-withdrawal data points are the means of 8–16 mice, unless otherwise indicated, with SEM shown by error bars.
All dose–response lines were analyzed by regression, and ED50 (effective dose producing 50% antinociception) values and 95% confidence intervals (C.I.) were determined using individual data points from graded dose–response curves with Prism 8.0 software (GraphPad, La Jolla, CA, USA). Percent antinociception was used to determine within group effects and to allow comparison to baseline latency in tail-withdrawal experiments. The statistical significance of differences between ED50 values was determined by evaluation of the ED50 value shift via nonlinear regression modeling with Prism software. Significant differences in behavioral data were analyzed by ANOVA (one-way or two-way with repeated measures (RM), as appropriate). Significant results were further analyzed with Sidak’s, Tukey’s, or Dunnett’s multiple comparison post hoc tests, as appropriate. Data for conditioned place preference experiments were analyzed by two-way RM ANOVA, with analyses examining the main effect of the conditioned place preference phase (e.g., pre- or post-conditioning) and the interaction of drug pretreatment. Significant effects were further analyzed using Sidak’s HSD post hoc testing. All data are presented as mean ± SEM, with significance set at p < 0.05.

The test system of data set [4] is C57BL/6J mice. Nature of the data set: Respiration rate in CLAMS/Oxymax system. The following applies: i.c.v. The format is in vivo, mouse. The procedure:
as §1

For data set [5], the system named is C57BL/6J mice. Nature of the data set: Opioid antagonist activity of 1968-22 against opioid agonists (tail-withdrawal assay).
For data set [6], the system named is C57BL/6J mice. Nature of the data set: Conditioned place preference / aversion. The format is in vivo, mouse. The following applies: 0.1, 1 or 10 nmol, i.c.v.; two days of place conditioning.
Data set [7] is described as follows: LC-MS/MS analysis of blood and perfused brain after i.v. administration. The format is in vivo, mouse. As to the method:
To assess the stability of 1968-22 in plasma and evaluate CNS penetration, blood and perfused brains were collected from mice 5, 15, and 30 min after (i.v.) administration of the bis-cyclic guanidine (10 mg/kg, i.v.).
Figure 5 LC-MS/MS analysis of 1968-22 ([…].) in blood and brain samples isolated from treated mice over 30 min. Control mice received vehicle (10% Ethanol/10%Tween-80/80% 0.9% saline) and were harvested immediately. Points are mean AUC ± SEM for the summed ion extracted chromatographs of 1968-22 from three mice/time points.

Data set [8] concerns C57BL/6J mice. Put plainly: Opioid receptor involvement in antinociception (antagonist pretreatment, tail-withdrawal assay). The format is in vivo, mouse. As to the method:
Pretreatment of mice with the opioid antagonist naloxone (10 mg/kg, s.c., −15 min) was used to assess receptor contribution to the observed antinociception induced by maximal tested doses of each 1968-series compound tested.
The opioid receptor involvement in the agonist activity of the heterocyclic peptidomimetics was determined by pretreating mice with a single dose of β-funaltrexamine (β-FNA, 10 mg/kg, i.p.) or nor-BNI (10 mg/kg, i.p.) 24 h in advance of administration of a dose of 1968-series compound.

“Also recorded” adds a separate entry of the source. Like-named read-outs stand apart in the source and are kept apart here.

In the case of `Cc1cc(O)cc(C)c1C[C@H]1CN([C@@H](Cc2c(C)cc(O)cc2C)CN2C(=N)NC[C@@H]2C)C(=N)N1` [1968-22], the “effect on ambulation vs vehicle” value is “brief reductions in ambulations” in data set [1] (0.3 nmol, 0–20 min); “elevated ambulations” in data set [1] (100 nmol); “without significant effect” in data set [1] (1 or 10 nmol). Besides, the Ki came out at 195 nM in data set [2] (experiment 1, unit inferred, read-out: Ki (Exp 1)); 242 nM in data set [2] (experiment 2, unit inferred, read-out: Ki (Exp 2)); 218 nM in data set [2] (mean of two experiments, read-out: Ki). Further, in data set [3] (10 mg/kg, p.o.), the “antinociception after oral administration (in words)” value was “significant antinociception”. The “time of peak antinociception after i.c.v. administration” value in data set [3] (i.c.v.) is on record as 20 min. Further, the “ED50 (and 95% Confidence Interval (C.I.)) Values, i.c.v. (nmol)” value in data set [3] (i.c.v., antinociception at peak response, mice, * ED50 estimated where maximum antinociception not achieved) is given as 0.011 (0.005–0.026) nmol. Further, in data set [3] (i.c.v., maximum doses tested), the “duration of significant antinociception” value is given as 70 min. In addition, the “effect on respiration rate vs vehicle” value was “increases in respiration rates” in data set [4] (100 nmol) and “did not have any significant effect” in data set [4] (0.3, 1 or 10 nmol). Moreover, the “antagonism of SNC-80-induced antinociception” value in data set [5] (2.5 h pretreatment, 0.3 nmol i.c.v., SNC-80 100 nmol, i.c.v.) is “significantly antagonized”. For the same compound, the “antagonism of morphine-induced antinociception” value in data set [5] (2.5 h pretreatment, 0.3 nmol i.c.v., morphine 10 mg/kg, i.p.) is given as “did not have an effect”. Further, in data set [5] (i.c.v. pretreatment, SNC-80 100 nmol, i.c.v.), the “pretreatment dose giving maximal antagonism of SNC-80” value is on record as 3 nmol. Also, the place conditioning result in data set [6] was “no significant preference or aversion”. In data set [7] (10 mg/kg), the “time detectable / stable in blood after i.v. administration” value is on record as “at least 30 min”. In addition, the “levels in perfused brain by LC-MS/MS” value in data set [7] (10 mg/kg, 5, 15 and 30 min) was “negligible levels”. In data set [7] (10 mg/kg, within 5 min of administration), the “detection in serum by LC-MS/MS” value is “readily detected”. Besides, in data set [8] (naloxone 10 mg/kg, s.c., −15 min, maximal tested i.c.v. dose of compound), the “effect of naloxone pretreatment on antinociception” value is recorded as “most susceptible to antagonism by naloxone; also recorded: blocked fully”. Further, in data set [8] (naltrindole 20 mg/kg, i.p., −20 min, 1968-16 30 nmol or 1968-22 0.3 nmol, i.c.v.), the “effect of naltrindole (DOR antagonist) pretreatment on antinociception” value is “significantly antagonized”. Also, the “effect of nor-BNI (KOR antagonist) pretreatment on antinociception” value in data set [8] (nor-BNI 10 mg/kg, i.p., −24 h, 1968-16 30 nmol or 1968-22 0.3 nmol, i.c.v.) is on record as “significantly antagonized”. In data set [8] (β-FNA 10 mg/kg, i.p., −24 h, 1968-16 30 nmol or 1968-22 0.3 nmol, i.c.v.), the “effect of β-FNA (MOR antagonist) pretreatment on antinociception” value is recorded as “significantly antagonized”.
